Measurements taken from the supplement of paper PMC10307832.

Columns and labels:
Assay in all cases: relative viability (nuclei count vs DMSO), 5 days (fraction); higher = more cells survive
Pazopanib + Luminespib = compound: Cc1ccc(Nc2nccc(N(C)c3ccc4c(C)n(C)nc4c3)n2)cc1S(N)(=O)=O [Pazopanib] + CCNC(=O)c1noc(-c2cc(C(C)C)c(O)cc2O)c1-c1ccc(CN2CCOCC2)cc1 [Luminespib] (partner 0.01 µM)
How it was run: (§1)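 One day after seeding in 1536-well plates, lung cancer cell lines were dosed by pin tool. Dosing was either single-drug or a fixed anchor-drug dose plus five library-drug doses (not always all listed) in √10 steps. After 5 days, nuclei were stained in one fix-and-stain step and counted on 4× images, and relative viability is the nuclei count of treated wells over that of vehicle wells, given as the median of duplicate plates.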

Pazopanib + Dasatinib = compound: Cc1ccc(Nc2nccc(N(C)c3ccc4c(C)n(C)nc4c3)n2)cc1S(N)(=O)=O [Pazopanib] + Cc1nc(Nc2ncc(C(=O)Nc3c(C)cccc3Cl)s2)cc(N2CCN(CCO)CC2)n1 [Dasatinib] (partner 0.075 µM)
How it was run: as §1

Ponatinib + Lapatinib = compound: Cc1ccc(C(=O)Nc2ccc(CN3CCN(C)CC3)c(C(F)(F)F)c2)cc1C#Cc1cnc2cccnn12 [Ponatinib] + CS(=O)(=O)CCNCc1ccc(-c2ccc3ncnc(Nc4ccc(OCc5cccc(F)c5)c(Cl)c4)c3c2)o1 [Lapatinib] (partner 2 µM)
How it was run: as §1

Ponatinib + Navitoclax = compound: Cc1ccc(C(=O)Nc2ccc(CN3CCN(C)CC3)c(C(F)(F)F)c2)cc1C#Cc1cnc2cccnn12 [Ponatinib] + CC1(C)CCC(c2ccc(Cl)cc2)=C(CN2CCN(c3ccc(C(=O)NS(=O)(=O)c4ccc(N[C@H](CCN5CCOCC5)CSc5ccccc5)c(S(=O)(=O)C(F)(F)F)c4)cc3)CC2)C1 [Navitoclax] (partner 0.5 µM)
How it was run: as §1

Cell Line	relative viability (Pazopanib + Luminespib; first compound 0.03162 µM)	relative viability (Pazopanib + Luminespib; first compound 0.1 µM)	relative viability (Pazopanib + Luminespib; first compound 0.3162 µM)	relative viability (Pazopanib + Luminespib; first compound 1 µM)	relative viability (Pazopanib + Dasatinib; first compound 0.03162 µM)	relative viability (Pazopanib + Dasatinib; first compound 0.1 µM)	relative viability (Pazopanib + Dasatinib; first compound 0.3162 µM)	relative viability (Pazopanib + Dasatinib; first compound 1 µM)	relative viability (Ponatinib + Lapatinib; first compound 0.002 µM)	relative viability (Ponatinib + Lapatinib; first compound 0.006325 µM)	relative viability (Ponatinib + Lapatinib; first compound 0.06325 µM)	relative viability (Ponatinib + Lapatinib; first compound 0.2 µM)	relative viability (Ponatinib + Navitoclax; first compound 0.002 µM)	relative viability (Ponatinib + Navitoclax; first compound 0.006325 µM)	relative viability (Ponatinib + Navitoclax; first compound 0.06325 µM)	relative viability (Ponatinib + Navitoclax; first compound 0.2 µM)	relative viability (Pazopanib + Luminespib; first compound 0.01 µM)	relative viability (Pazopanib + Dasatinib; first compound 0.01 µM)
NCI-H1792	0.394	0.476	0.423	0.422	0.728	0.681	0.834	0.774	0.854	0.85	0.92	0.847	0.609	0.648	0.582	0.624	–	–
SW 1573	0.17	0.266	0.205	0.236	0.717	0.621	0.451	0.561	1.1	1.19	1.25	1.22	1.02	0.989	1.03	0.901	0.24	0.588
NCI-H1650	0.189	0.235	0.195	0.187	0.375	0.381	0.319	0.403	0.735	0.811	0.636	0.62	1.1	1.22	1.49	0.999	0.195	0.301
NCI-H2009	0.989	0.988	0.955	0.854	0.324	0.298	0.335	0.226	0.865	0.887	1.08	0.946	1.12	1.07	1.13	1.13	1.04	0.279
LOU-NH91	0.336	0.331	0.324	0.275	0.523	0.559	0.603	0.565	0.717	0.788	0.755	0.709	0.679	0.753	0.779	0.655	0.335	0.49
NCI-H3122	0.0909	0.106	0.0886	0.0721	0.895	0.756	0.785	0.5	0.993	1	1.01	1.07	1.04	1.03	1.04	1.01	0.0969	0.815
LCLC-97TM1	0.839	0.831	0.925	0.736	0.854	0.888	0.847	0.785	–	1	–	0.786	–	0.645	–	0.385	0.817	0.771
NCI-H647	0.124	0.199	0.217	0.14	0.21	0.224	0.243	0.25	0.99	0.995	1.11	0.811	1.04	1.07	1.21	0.935	0.244	0.135
NCI-H838	0.351	0.282	0.21	0.322	0.278	0.297	0.278	0.334	0.911	1.04	1.03	0.813	1.1	1.21	1.19	0.979	0.351	0.273
H3255	0.883	0.869	0.8	0.982	0.397	0.295	0.286	0.454	0.222	0.268	0.263	0.21	0.477	0.501	0.725	0.479	0.854	0.349
NCI-H1395	0.588	0.642	0.781	0.62	0.487	0.362	0.452	0.432	–	0.888	0.782	0.753	–	1.15	1.09	0.977	0.566	0.398
NCI-H1437	1.16	1.13	1.11	1.07	0.465	0.353	0.396	0.723	0.742	0.848	0.885	0.758	1.06	1.08	1.22	1.08	1.25	0.399
LU99A	0.226	0.244	0.279	0.258	0.545	0.622	0.54	0.503	0.98	1.13	0.951	0.868	0.715	0.832	0.886	0.77	0.245	0.425
HCC-827	0.778	0.747	0.603	0.46	0.27	0.284	0.399	0.324	0.214	0.186	0.202	0.184	1.02	0.971	1.06	0.983	0.369	0.286
LK-2	0.208	0.176	0.168	0.219	0.305	0.317	0.373	0.314	0.82	0.861	0.696	0.54	0.619	0.825	1.04	0.64	–	–
BEN	0.328	0.246	0.364	0.352	0.343	0.267	0.318	0.38	0.503	0.509	0.721	0.628	0.0656	0.0538	0.0585	0.0666	–	–
NCI-H23	0.209	0.219	0.226	0.231	0.852	0.94	0.869	0.894	1.03	1.02	1.31	0.985	0.762	0.828	0.852	0.781	0.227	0.722
NCI-H1793	0.235	0.198	0.186	0.235	0.357	0.412	0.372	0.533	0.645	0.786	0.645	0.459	0.495	0.422	0.54	0.478	–	–
